pIC50: −log10 of the molar value. Each block holds one compound with its values, some of them ahead of it.
Tested on: 883617-216-R-J1-PDC tumor spheroids, viability
Test: Anticancer human tumor 883617-216-R-J1-PDC patient-derived bladder carcinoma cell line growth inhibition [PI3K]
Conditions: spheroids with HUVEC and MSC; for pIC50: curve of first compound; for viability, T/C: stronger effect = lower value
Summary of the method: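 Viability of mixed-cell spheroids was determined after exposure to pairwise combinations, one partner being inavolisib, alpelisib, duvelisib or copanlisib. Highest tested concentration matched clinical Cmax where known and 10 microM where not, descending in half-log steps.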

[1] = second compound 0.0316 µM, first compound 0.0316 µM
[2] = second compound 0.0316 µM, first compound 0.1 µM
[3] = second compound 0.0316 µM, first compound 0.316 µM
[4] = second compound 0.0316 µM, first compound 1 µM
[5] = second compound 0.0316 µM, first compound 3.16 µM
[6] = second compound 0.0316 µM, first compound 10 µM
[7] = second compound 0.1 µM, first compound 0.0316 µM
[8] = second compound 0.1 µM, first compound 0.1 µM
[9] = second compound 0.1 µM, first compound 0.316 µM
[10] = second compound 0.1 µM, first compound 1 µM
[11] = second compound 0.1 µM, first compound 3.16 µM
[12] = second compound 0.1 µM, first compound 10 µM
[13] = second compound 0.316 µM, first compound 0.0316 µM
[14] = second compound 0.316 µM, first compound 0.1 µM
[15] = second compound 0.316 µM, first compound 0.316 µM
[16] = second compound 0.316 µM, first compound 1 µM
[17] = second compound 0.316 µM, first compound 3.16 µM
[18] = second compound 0.316 µM, first compound 10 µM
[19] = second compound 1 µM, first compound 0.0316 µM
[20] = second compound 1 µM, first compound 0.1 µM
[21] = second compound 1 µM, first compound 0.316 µM
[22] = second compound 1 µM, first compound 1 µM
[23] = second compound 1 µM, first compound 3.16 µM
[24] = second compound 1 µM, first compound 10 µM
[25] = second compound 3.16 µM, first compound 0.0316 µM
[26] = second compound 3.16 µM, first compound 0.1 µM
[27] = second compound 3.16 µM, first compound 0.316 µM
[28] = second compound 3.16 µM, first compound 1 µM
[29] = second compound 3.16 µM, first compound 3.16 µM
[30] = second compound 3.16 µM, first compound 10 µM
[31] = second compound 10 µM, first compound 0.0316 µM
[32] = second compound 10 µM, first compound 0.1 µM
[33] = second compound 10 µM, first compound 0.316 µM
[34] = second compound 10 µM, first compound 1 µM
[35] = second compound 10 µM, first compound 3.16 µM
[36] = second compound 10 µM, first compound 10 µM
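Note: spheroids exposed to agents for 7 days before the viability read.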

pIC50 (second compound 0.0316 µM): 6.39
pIC50 (second compound 0.1 µM): 6.67
pIC50 (second compound 0.316 µM): > 7.50
pIC50 (second compound 1 µM): > 7.50
pIC50 (second compound 3.16 µM): > 7.50
pIC50 (second compound 10 µM): > 7.50
SMILES: CC(C)NCC(C(=O)N1CCN(c2ncnc3c2C(C)CC3O)CC1)c1ccc(Cl)cc1 (stereo not drawn) + Cc1nc(NC(=O)N2CCCC2C(N)=O)sc1-c1ccnc(C(C)(C)C(F)(F)F)c1
viability, T/C [1]: 77%
viability, T/C [2]: 67.7%
viability, T/C [3]: 57.6%
viability, T/C [4]: 27.9%
viability, T/C [5]: 13.8%
viability, T/C [6]: 8.01%
viability, T/C [7]: 72.8%
viability, T/C [8]: 60.1%
viability, T/C [9]: 45.5%
viability, T/C [10]: 26.7%
viability, T/C [11]: 16.2%
viability, T/C [12]: 6.45%
viability, T/C [13]: 37.7%
viability, T/C [14]: 41%
viability, T/C [15]: 36.6%
viability, T/C [16]: 22.6%
viability, T/C [17]: 10.9%
viability, T/C [18]: 4.92%
viability, T/C [19]: 30.4%
viability, T/C [20]: 29.9%
viability, T/C [21]: 24.4%
viability, T/C [22]: 15.2%
viability, T/C [23]: 8.01%
viability, T/C [24]: 4.96%
viability, T/C [25]: 17.9%
viability, T/C [26]: 10.5%
viability, T/C [27]: 10.3%
viability, T/C [28]: 9.2%
viability, T/C [29]: 8.98%
viability, T/C [30]: 3.73%
viability, T/C [31]: 7.03%
viability, T/C [32]: 5.88%
viability, T/C [33]: 5.22%
viability, T/C [34]: 5.21%
viability, T/C [35]: 3.1%
viability, T/C [36]: 2.33%

pIC50 (second compound 0.0316 µM): 5.30
pIC50 (second compound 0.1 µM): 5.35
pIC50 (second compound 0.316 µM): > 7.50
pIC50 (second compound 1 µM): > 7.50
pIC50 (second compound 3.16 µM): > 7.50
pIC50 (second compound 10 µM): > 7.50
SMILES: CC1(C)CCC(CN2CCN(c3ccc(C(=O)NS(=O)(=O)c4ccc(NCC5CCOCC5)c([N+](=O)[O-])c4)c(Oc4cnc5[nH]ccc5c4)c3)CC2)=C(c2ccc(Cl)cc2)C1 + Cc1nc(NC(=O)N2CCCC2C(N)=O)sc1-c1ccnc(C(C)(C)C(F)(F)F)c1
viability, T/C [1]: 85.3%
viability, T/C [2]: 84%
viability, T/C [3]: 87.7%
viability, T/C [4]: 81.2%
viability, T/C [5]: 81.8%
viability, T/C [6]: 3.63%
viability, T/C [7]: 66.6%
viability, T/C [8]: 66.1%
viability, T/C [9]: 79.5%
viability, T/C [10]: 67.3%
viability, T/C [11]: 71.3%
viability, T/C [12]: 3.02%
viability, T/C [13]: 47.4%
viability, T/C [14]: 45%
viability, T/C [15]: 51.2%
viability, T/C [16]: 52.6%
viability, T/C [17]: 44.5%
viability, T/C [18]: 4.5%
viability, T/C [19]: 41.3%
viability, T/C [20]: 28.9%
viability, T/C [21]: 29.4%
viability, T/C [22]: 33.2%
viability, T/C [23]: 30.7%
viability, T/C [24]: 3.44%
viability, T/C [25]: 14.8%
viability, T/C [26]: 14.4%
viability, T/C [27]: 17.1%
viability, T/C [28]: 14.3%
viability, T/C [29]: 14.7%
viability, T/C [30]: 2.57%
viability, T/C [31]: 7.93%
viability, T/C [32]: 12.9%
viability, T/C [33]: 7.45%
viability, T/C [34]: 8.13%
viability, T/C [35]: 7.77%
viability, T/C [36]: 1.74%

pIC50 (second compound 0.0316 µM): < 5.00
pIC50 (second compound 0.1 µM): < 5.00
pIC50 (second compound 0.316 µM): 5.70
pIC50 (second compound 1 µM): > 7.50
pIC50 (second compound 3.16 µM): > 7.50
pIC50 (second compound 10 µM): > 7.50
SMILES: C[C@@H](NC(=O)c1ncnc(N)c1Cl)c1ncc(C(=O)Nc2cc(C(F)(F)F)c(Cl)cn2)s1 + Cc1nc(NC(=O)N2CCCC2C(N)=O)sc1-c1ccnc(C(C)(C)C(F)(F)F)c1
viability, T/C [1]: 89.3%
viability, T/C [2]: 91.5%
viability, T/C [3]: 94.9%
viability, T/C [4]: 85.2%
viability, T/C [5]: 82.1%
viability, T/C [6]: 58%
viability, T/C [7]: 69%
viability, T/C [8]: 74.2%
viability, T/C [9]: 73.3%
viability, T/C [10]: 73%
viability, T/C [11]: 75.1%
viability, T/C [12]: 57.7%
viability, T/C [13]: 48.3%
viability, T/C [14]: 52.6%
viability, T/C [15]: 49.7%
viability, T/C [16]: 53.8%
viability, T/C [17]: 48.8%
viability, T/C [18]: 37.9%
viability, T/C [19]: 29.6%
viability, T/C [20]: 33.4%
viability, T/C [21]: 29.2%
viability, T/C [22]: 33%
viability, T/C [23]: 24.9%
viability, T/C [24]: 24.4%
viability, T/C [25]: 15.3%
viability, T/C [26]: 14.3%
viability, T/C [27]: 16.9%
viability, T/C [28]: 15.7%
viability, T/C [29]: 16.6%
viability, T/C [30]: 12.1%
viability, T/C [31]: 9.78%
viability, T/C [32]: 8.18%
viability, T/C [33]: 11.9%
viability, T/C [34]: 8.65%
viability, T/C [35]: 7.27%
viability, T/C [36]: 3.76%

pIC50 (second compound 0.0316 µM): < 7.00
pIC50 (second compound 0.1 µM): < 7.00
pIC50 (second compound 0.316 µM): > 9.50
pIC50 (second compound 1 µM): > 9.50
pIC50 (second compound 3.16 µM): > 9.50
pIC50 (second compound 10 µM): > 9.50
SMILES: Cn1ncnc1[C@H]1c2n[nH]c(=O)c3cc(F)cc(c23)N[C@@H]1c1ccc(F)cc1 + Cc1nc(NC(=O)N2CCCC2C(N)=O)sc1-c1ccnc(C(C)(C)C(F)(F)F)c1
viability, T/C (second compound 0.0316 µM, first compound 0.000316 µM): 88.1%
viability, T/C (second compound 0.0316 µM, first compound 0.001 µM): 74%
viability, T/C (second compound 0.0316 µM, first compound 0.00316 µM): 68.2%
viability, T/C (second compound 0.0316 µM, first compound 0.01 µM): 68.5%
viability, T/C [1]: 64.8%
viability, T/C [2]: 52.9%
viability, T/C (second compound 0.1 µM, first compound 0.000316 µM): 66.9%
viability, T/C (second compound 0.1 µM, first compound 0.001 µM): 67.4%
viability, T/C (second compound 0.1 µM, first compound 0.00316 µM): 65.7%
viability, T/C (second compound 0.1 µM, first compound 0.01 µM): 52.4%
viability, T/C [7]: 54.9%
viability, T/C [8]: 52%
viability, T/C (second compound 0.316 µM, first compound 0.000316 µM): 43.5%
viability, T/C (second compound 0.316 µM, first compound 0.001 µM): 47.3%
viability, T/C (second compound 0.316 µM, first compound 0.00316 µM): 49.5%
viability, T/C (second compound 0.316 µM, first compound 0.01 µM): 45.5%
viability, T/C [13]: 35.4%
viability, T/C [14]: 34.9%
viability, T/C (second compound 1 µM, first compound 0.000316 µM): 27.5%
viability, T/C (second compound 1 µM, first compound 0.001 µM): 31.6%
viability, T/C (second compound 1 µM, first compound 0.00316 µM): 23.1%
viability, T/C (second compound 1 µM, first compound 0.01 µM): 26.2%
viability, T/C [19]: 27.2%
viability, T/C [20]: 21.3%
viability, T/C (second compound 3.16 µM, first compound 0.000316 µM): 16%
viability, T/C (second compound 3.16 µM, first compound 0.001 µM): 16.1%
viability, T/C (second compound 3.16 µM, first compound 0.00316 µM): 12%
viability, T/C (second compound 3.16 µM, first compound 0.01 µM): 13%
viability, T/C [25]: 14.1%
viability, T/C [26]: 12%
viability, T/C (second compound 10 µM, first compound 0.000316 µM): 7.59%
viability, T/C (second compound 10 µM, first compound 0.001 µM): 8.2%
viability, T/C (second compound 10 µM, first compound 0.00316 µM): 6.62%
viability, T/C (second compound 10 µM, first compound 0.01 µM): 6.95%
viability, T/C [31]: 7.18%
viability, T/C [32]: 5.36%
